Measured values as given in ChEMBL document CHEMBL1201862, “PubChem BioAssay data set” (2004).
Activity calls are given as the source filed them.

Experiments:
[1] = molecular target: T1, Beta-lactamase (Pseudomonas aeruginosa, UniProt Q79MP6)
[2] = molecular target: T2, Beta-lactamase (Salmonella choleraesuis (strain SC-B67), UniProt Q5J463)
[3] = molecular target: Dual specificity protein phosphatase 3 (Homo sapiens, UniProt P51452); experiment: VHR phosphatase inhibition, dose response, selectivity assay for STEP inhibitor project, biochemical (AID 602374); type: functional; conditions: read-out: IC50_Mean
[4] = molecular target: Tyrosine-protein phosphatase non-receptor type 11 (Homo sapiens, UniProt Q06124); experiment: SHP2 phosphatase inhibition, dose response, selectivity assay for STEP inhibitor project, biochemical (AID 602367); type: functional; conditions: read-out: IC50_Mean
[5] = molecular target: T3, Tyrosine-protein phosphatase non-receptor type 22 (Homo sapiens, UniProt Q9Y2R2); experiment: PTPN22 phosphatase inhibition, dose response, selectivity assay for STEP inhibitor project, biochemical (AID 624241); type: functional
T3 sequence (Q9Y2R2 whole entry): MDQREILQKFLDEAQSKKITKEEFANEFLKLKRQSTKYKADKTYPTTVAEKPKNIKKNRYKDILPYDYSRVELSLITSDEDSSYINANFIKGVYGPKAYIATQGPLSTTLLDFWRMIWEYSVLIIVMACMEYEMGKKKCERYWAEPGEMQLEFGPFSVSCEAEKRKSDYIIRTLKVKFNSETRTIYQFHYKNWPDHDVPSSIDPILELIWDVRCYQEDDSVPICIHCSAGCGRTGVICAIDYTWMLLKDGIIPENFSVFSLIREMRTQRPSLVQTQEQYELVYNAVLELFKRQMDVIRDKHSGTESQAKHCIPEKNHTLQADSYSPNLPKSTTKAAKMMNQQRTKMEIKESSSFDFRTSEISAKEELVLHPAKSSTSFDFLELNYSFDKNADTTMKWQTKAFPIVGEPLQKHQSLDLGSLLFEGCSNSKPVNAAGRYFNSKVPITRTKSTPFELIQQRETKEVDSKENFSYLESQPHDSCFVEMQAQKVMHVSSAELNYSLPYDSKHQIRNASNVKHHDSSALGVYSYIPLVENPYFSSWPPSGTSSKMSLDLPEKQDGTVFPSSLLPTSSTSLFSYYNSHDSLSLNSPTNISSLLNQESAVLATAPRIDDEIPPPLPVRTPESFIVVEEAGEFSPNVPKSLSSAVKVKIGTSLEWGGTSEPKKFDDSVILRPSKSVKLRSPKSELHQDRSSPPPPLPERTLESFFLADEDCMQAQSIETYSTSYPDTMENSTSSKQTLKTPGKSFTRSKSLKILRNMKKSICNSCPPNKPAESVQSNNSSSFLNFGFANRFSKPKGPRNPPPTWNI

[6] = molecular target: Tyrosine-protein phosphatase non-receptor type 5 (Homo sapiens, UniProt P54829); experiment: STEP phosphatase inhibitors, confirmation, biochemical, fluorescence intensity, uHTS hits (AID 602372); type: functional; conditions: read-out: IC50_Mean
[7] = molecular target: Glucose-6-phosphate 1-dehydrogenase (Homo sapiens, UniProt P11413); experiment: human G6PD enzyme inhibitors, dose response, selectivity assay for P. falciparum G6PD inhibitor project, biochemical, fluorescence (AID 504792); type: functional
[8] = molecular target: Arf-GAP with SH3 domain, ANK repeat and PH domain-containing protein 1 (Homo sapiens, UniProt Q9ULH1); type: functional;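 also: biochemical fluorescence polarization dose–response screen measuring inhibition of ASAP1; ASAP1 GAP domain stimulating GTP hydrolysis by truncated human ARF1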
[9] = molecular target: T4, Sentrin-specific protease 8 (Homo sapiens, UniProt Q96LD8); type: functional
T4 sequence (Q96LD8 whole entry): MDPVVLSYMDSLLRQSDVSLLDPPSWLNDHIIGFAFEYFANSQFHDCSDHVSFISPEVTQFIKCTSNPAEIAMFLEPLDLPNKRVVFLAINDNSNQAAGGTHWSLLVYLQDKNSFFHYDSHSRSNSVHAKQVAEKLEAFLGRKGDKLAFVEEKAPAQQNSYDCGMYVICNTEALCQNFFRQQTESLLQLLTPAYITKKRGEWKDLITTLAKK

[10] = molecular target: T4, Sentrin-specific protease 8; type: functional; remark: listed apart in the source
[11] = molecular target: T5, Replicative DNA helicase DnaB (Mycobacterium tuberculosis, UniProt P9WMR3); experiment: DnaB intein splicing inhibitors, dose response, biochemical, cell-free fluorescence (AID 449749); type: functional
T5 sequence (P9WMR3 whole entry): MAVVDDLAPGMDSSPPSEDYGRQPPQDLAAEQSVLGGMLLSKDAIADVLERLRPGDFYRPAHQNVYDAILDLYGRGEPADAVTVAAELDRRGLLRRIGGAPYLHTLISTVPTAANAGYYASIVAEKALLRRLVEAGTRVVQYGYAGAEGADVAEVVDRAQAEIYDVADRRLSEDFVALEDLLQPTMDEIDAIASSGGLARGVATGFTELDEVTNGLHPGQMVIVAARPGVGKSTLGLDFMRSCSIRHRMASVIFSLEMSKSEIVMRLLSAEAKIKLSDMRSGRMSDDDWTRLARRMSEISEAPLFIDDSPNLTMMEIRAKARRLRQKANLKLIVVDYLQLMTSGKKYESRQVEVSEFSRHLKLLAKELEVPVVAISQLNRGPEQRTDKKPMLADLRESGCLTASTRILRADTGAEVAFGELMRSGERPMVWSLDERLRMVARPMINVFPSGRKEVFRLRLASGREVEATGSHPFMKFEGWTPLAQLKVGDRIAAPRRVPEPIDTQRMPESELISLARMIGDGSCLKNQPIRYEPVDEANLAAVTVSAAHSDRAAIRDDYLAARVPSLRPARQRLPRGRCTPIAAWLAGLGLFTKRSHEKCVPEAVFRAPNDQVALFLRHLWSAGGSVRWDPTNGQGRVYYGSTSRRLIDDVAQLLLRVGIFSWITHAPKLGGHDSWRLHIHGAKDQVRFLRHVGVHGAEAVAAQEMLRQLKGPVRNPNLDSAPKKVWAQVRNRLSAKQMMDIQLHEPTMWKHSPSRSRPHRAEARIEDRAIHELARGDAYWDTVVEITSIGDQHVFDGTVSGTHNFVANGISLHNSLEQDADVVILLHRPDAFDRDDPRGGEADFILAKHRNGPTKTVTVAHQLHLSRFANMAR

[12] = molecular target: T6, Protein RecA (Mycobacterium tuberculosis, UniProt P9WHJ3); experiment: Fluorescence Cell-Free Homogeneous Dose Retest to Identify Inhibitors of RecA-Intein Splicing Activity. [Related pubchem assays (depositor defined):AID2097, AID2223, AID489010, AID492950]; type: functional
T6 sequence (P9WHJ3 whole entry): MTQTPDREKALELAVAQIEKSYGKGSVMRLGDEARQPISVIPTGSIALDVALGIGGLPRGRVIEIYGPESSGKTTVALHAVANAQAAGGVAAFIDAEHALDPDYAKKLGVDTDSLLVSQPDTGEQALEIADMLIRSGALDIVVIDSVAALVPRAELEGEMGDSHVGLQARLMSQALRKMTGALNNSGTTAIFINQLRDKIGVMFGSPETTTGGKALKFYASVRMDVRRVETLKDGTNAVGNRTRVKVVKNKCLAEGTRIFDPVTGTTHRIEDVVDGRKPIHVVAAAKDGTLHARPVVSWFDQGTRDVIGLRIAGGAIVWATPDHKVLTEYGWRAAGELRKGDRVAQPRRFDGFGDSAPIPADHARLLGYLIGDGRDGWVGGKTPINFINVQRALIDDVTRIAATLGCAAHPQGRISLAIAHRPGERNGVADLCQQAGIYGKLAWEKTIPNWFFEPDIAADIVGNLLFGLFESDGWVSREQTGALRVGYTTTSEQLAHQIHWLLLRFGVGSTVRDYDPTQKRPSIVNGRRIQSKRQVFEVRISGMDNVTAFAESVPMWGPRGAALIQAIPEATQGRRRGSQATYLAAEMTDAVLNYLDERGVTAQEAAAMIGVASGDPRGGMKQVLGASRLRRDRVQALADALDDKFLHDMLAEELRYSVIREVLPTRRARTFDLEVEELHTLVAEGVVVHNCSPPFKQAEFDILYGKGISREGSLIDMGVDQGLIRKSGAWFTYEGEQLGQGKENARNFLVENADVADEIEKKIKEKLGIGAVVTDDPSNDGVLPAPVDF

[13] = molecular target: T7, Beta-2 adrenergic receptor (Homo sapiens, UniProt P07550); experiment: beta2AR agonists driving receptor internalization, dose response, cell-based, FAP fluorogen, flow cytometry, cherry pick 1 (AID 588763); type: functional
[14] = molecular target: Cytochrome P450 3A4 (Homo sapiens, UniProt P08684);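 also: CYP3A4 tested as one member of a cytochrome P450 panel screen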
[15] = molecular target: Cytochrome P450 2C19 (Homo sapiens, UniProt P33261); experiment: Cytochrome panel assay with activity outcomes. Panel member name: p450-cyp2c19 Compounds with AC50 equal or less than 10 uM are considered active; type: functional; conditions: read-out: AC50
[16] = molecular target: T7, Beta-2 adrenergic receptor; experiment: Dose response for HTS for Beta-2AR agonists via FAP method from Powderset3.; type: functional
[17] = miR-122 activators in hepatoma reporter cells, dose response, cell-based, Huh7 psiCHECK-miR122, Renilla luciferase, cherry-picked (AID 651956); type: functional;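 also: huh7 hepatoma cells stably carrying a psiCHECK-2 miR-122 sensor plasmid; renilla luciferase signal reporting endogenous miR-122 activity after 48 h compound exposure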
[18] = HEK293T cytotoxicity, dose response, cytotoxicity control for miR-122 modulator project, cell-based, activator set, cherry-pick (AID 720690); type: functional;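 also: HEK293T human cells scored for general mammalian cytotoxicity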
[19] = HEK293T cytotoxicity, dose response, cytotoxicity control for miR-122 modulator project, cell-based, inhibitor set, cherry-pick, set 2 (AID 720697); type: functional
[20] = NIH/3T3 fibroblast cytotoxicity, dose response, cytotoxicity control for T. cruzi growth inhibitor project, cell-based, cherry-pick samples, set 2 (AID 651817); type: functional; conditions: NIH3T3
[21] = intracellular Trypanosoma cruzi inhibitors in host cells – cell-based, plate reader, cherry-pick samples, set 3, dose response (AID 651818); type: functional;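 also: compounds incubated with infected cells for about four days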
[22] = cytotoxicity in ldlA[mSR-BI] CHO cells, dose response, cytotoxicity control for SR-BI HDL uptake inhibitor project, cell-based, CellTiter-Glo, 24 h, powder samples, set 7 (AID 624026); type: functional
[23] = molecular target: Scavenger receptor class B member 1 (Mus musculus, UniProt Q61009); experiment: inhibitors of SR-BI dependent HDL uptake, dose response, ldlA[mSR-BI] CHO cells, fluorescence plate reader, dry powder, set 9 (AID 623880); type: functional, cell-based
[24] = Cryptococcus neoformans growth inhibition, dose response, Alamar Blue, cherry-picks (AID 686998); type: functional, organism-based
[25] = tested on: Vero; experiment: Vero cell toxicity, dose response, cytotoxicity control, plate reader, cherry-pick samples (AID 687020); type: functional, cell-based; conditions: Chlorocebus sabaeus
[26] = cytotoxicity in HEK-293T cells, dose response, cytotoxicity control for TCR NF-kB inhibitor project, luminescence, T-cell screen hits (AID 489026); type: functional, cell-based;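 also: cells exposed to compound about 14 hours before the viability readout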
[27] = tested on: A549; experiment: A549 cell toxicity, dose response, cytotoxicity control, plate reader, cherry-pick samples (AID 687028); type: functional, cell-based; conditions: Homo sapiens
[28] = molecular target: T1, Beta-lactamase; experiment: […] counterscreen for selective VIM-2 inhibitors: dose response biochemical high throughput screening assay to identify inhibitors of IMP-1 metallo-beta-lactamase.
[29] = molecular target: FAD-linked sulfhydryl oxidase ALR (Homo sapiens, UniProt P55789); experiment: inhibitors of human ALR sulfhydryl oxidase, dose response, biochemical, H2O2 detection, luminescence, cherry-pick (AID 493248)
[30] = molecular target: T1, Beta-lactamase; experiment: IMP-1 metallo-beta-lactamase inhibitors, dose response, selectivity assay for VIM-2 inhibitor project, biochemical, epi-absorbance (AID 1920)
[31] = molecular target: T2, Beta-lactamase; experiment: Epi-absorbance-based counterscreen for selective VIM-2 inhibitors: dose response biochemical high throughput screening assay to identify inhibitors of TEM-1 serine-beta-lactamase.
[32] = molecular target: T8, Beta Lactamase (Pseudomonas aeruginosa, UniProt Q932Y6); experiment: VIM-2 metallo-beta-lactamase inhibitor potency, dose response, biochemical, epi-absorbance readout, selective inhibitors (AID 1919)
[33] = molecular target: T8, Beta Lactamase; experiment: VIM-2 inhibitor FRET-based artefact check, dose response, artefact control for selective VIM-2 inhibitor project, biochemical, FRET readout, CCF2 substrate (AID 1926)

T1 sequence (Q79MP6 whole entry): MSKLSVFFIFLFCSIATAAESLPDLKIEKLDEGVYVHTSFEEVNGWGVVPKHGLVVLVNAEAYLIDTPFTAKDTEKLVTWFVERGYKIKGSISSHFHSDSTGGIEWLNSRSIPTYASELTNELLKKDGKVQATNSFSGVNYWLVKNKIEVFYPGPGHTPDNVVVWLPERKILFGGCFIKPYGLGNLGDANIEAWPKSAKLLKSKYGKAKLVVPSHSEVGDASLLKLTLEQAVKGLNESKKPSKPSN
T7 sequence (P07550 whole entry): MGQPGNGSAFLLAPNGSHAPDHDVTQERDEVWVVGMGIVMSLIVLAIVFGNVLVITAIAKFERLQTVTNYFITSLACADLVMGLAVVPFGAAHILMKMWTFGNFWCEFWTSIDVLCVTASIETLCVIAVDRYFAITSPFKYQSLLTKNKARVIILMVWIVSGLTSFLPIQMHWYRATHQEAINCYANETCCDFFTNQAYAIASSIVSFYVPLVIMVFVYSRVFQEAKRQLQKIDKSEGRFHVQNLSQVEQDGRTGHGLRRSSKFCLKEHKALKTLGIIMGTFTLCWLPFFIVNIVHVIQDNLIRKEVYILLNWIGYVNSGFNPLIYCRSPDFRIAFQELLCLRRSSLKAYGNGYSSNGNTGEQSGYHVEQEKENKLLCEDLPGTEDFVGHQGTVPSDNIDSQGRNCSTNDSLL
T2 sequence (Q5J463 whole entry): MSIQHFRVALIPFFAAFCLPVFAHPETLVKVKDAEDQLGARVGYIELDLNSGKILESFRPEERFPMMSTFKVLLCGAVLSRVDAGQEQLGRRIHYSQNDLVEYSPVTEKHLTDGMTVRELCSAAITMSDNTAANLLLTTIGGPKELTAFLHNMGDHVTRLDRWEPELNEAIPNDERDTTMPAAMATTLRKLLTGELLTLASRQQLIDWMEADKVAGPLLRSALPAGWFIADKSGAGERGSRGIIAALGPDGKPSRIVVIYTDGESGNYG
T8 sequence (Q932Y6 whole entry): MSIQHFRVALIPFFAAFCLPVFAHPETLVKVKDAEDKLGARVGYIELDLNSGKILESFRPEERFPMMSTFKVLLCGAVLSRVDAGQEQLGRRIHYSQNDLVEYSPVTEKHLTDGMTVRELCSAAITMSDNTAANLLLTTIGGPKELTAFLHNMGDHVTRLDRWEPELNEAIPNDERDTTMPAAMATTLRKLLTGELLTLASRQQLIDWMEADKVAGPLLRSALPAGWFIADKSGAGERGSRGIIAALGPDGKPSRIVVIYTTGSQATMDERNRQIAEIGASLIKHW
Dual specificity protein phosphatase 3, sequence (P51452 whole entry): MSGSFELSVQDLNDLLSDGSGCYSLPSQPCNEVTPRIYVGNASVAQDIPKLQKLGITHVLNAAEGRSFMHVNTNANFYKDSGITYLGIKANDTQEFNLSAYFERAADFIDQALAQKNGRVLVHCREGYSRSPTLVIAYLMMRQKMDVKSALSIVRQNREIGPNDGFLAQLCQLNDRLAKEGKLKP
Tyrosine-protein phosphatase non-receptor type 5, sequence (P54829 whole entry): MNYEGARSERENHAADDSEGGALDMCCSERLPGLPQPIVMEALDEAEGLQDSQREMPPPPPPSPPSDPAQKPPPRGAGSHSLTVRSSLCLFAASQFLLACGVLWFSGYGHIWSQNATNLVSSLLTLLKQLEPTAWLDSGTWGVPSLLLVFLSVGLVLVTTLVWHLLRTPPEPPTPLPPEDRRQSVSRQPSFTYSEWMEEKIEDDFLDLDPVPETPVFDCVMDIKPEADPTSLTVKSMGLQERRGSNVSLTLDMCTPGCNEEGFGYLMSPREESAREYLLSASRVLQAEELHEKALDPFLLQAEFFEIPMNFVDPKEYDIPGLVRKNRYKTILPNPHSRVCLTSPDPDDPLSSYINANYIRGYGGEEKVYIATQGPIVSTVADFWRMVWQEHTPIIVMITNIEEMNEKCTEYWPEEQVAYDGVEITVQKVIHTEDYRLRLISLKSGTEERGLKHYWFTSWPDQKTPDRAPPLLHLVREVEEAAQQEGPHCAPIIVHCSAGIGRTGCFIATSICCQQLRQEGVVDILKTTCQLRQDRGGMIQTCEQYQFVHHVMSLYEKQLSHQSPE
Cytochrome P450 3A4, sequence (P08684 whole entry): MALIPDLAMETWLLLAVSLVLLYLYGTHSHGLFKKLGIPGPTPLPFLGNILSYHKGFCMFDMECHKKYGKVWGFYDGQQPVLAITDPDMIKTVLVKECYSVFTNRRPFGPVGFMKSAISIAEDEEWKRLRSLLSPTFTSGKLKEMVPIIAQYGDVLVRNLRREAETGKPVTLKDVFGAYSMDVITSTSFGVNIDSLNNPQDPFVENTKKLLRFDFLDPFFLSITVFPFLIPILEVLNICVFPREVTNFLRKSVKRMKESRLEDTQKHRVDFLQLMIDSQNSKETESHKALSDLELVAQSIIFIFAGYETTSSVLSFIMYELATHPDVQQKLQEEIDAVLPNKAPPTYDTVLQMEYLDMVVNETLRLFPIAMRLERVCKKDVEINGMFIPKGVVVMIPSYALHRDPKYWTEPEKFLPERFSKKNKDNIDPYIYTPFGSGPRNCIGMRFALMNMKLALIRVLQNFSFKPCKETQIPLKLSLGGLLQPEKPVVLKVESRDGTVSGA
Tyrosine-protein phosphatase non-receptor type 11, sequence (Q06124 whole entry): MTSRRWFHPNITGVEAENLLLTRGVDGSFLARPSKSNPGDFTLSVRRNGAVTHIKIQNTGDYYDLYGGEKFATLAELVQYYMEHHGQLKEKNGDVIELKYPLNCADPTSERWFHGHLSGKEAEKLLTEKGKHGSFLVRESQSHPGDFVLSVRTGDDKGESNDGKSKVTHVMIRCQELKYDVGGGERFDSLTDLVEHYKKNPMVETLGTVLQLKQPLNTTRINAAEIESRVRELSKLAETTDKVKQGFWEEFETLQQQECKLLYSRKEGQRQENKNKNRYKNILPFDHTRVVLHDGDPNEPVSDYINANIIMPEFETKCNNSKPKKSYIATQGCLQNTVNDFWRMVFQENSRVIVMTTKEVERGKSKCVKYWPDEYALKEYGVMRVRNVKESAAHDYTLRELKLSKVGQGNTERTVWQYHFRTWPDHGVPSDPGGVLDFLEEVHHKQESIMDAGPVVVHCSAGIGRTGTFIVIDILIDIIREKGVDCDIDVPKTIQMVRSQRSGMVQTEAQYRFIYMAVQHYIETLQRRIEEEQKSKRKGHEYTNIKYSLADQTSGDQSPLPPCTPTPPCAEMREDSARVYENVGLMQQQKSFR
Scavenger receptor class B member 1, sequence (Q61009 whole entry): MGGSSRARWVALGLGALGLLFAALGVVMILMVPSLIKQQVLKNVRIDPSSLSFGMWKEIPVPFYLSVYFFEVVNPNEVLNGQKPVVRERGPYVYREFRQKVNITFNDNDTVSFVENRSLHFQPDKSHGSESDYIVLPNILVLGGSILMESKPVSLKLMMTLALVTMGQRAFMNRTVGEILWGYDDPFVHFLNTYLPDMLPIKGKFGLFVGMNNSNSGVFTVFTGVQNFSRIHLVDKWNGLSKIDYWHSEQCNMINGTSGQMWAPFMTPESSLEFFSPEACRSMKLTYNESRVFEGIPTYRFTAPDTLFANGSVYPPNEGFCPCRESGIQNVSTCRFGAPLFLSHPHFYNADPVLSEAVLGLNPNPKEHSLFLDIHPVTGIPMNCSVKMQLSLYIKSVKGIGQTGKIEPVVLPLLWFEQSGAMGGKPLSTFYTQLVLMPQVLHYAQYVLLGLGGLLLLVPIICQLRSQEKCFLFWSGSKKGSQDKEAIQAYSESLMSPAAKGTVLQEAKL
Cytochrome P450 2C19, sequence (P33261 whole entry): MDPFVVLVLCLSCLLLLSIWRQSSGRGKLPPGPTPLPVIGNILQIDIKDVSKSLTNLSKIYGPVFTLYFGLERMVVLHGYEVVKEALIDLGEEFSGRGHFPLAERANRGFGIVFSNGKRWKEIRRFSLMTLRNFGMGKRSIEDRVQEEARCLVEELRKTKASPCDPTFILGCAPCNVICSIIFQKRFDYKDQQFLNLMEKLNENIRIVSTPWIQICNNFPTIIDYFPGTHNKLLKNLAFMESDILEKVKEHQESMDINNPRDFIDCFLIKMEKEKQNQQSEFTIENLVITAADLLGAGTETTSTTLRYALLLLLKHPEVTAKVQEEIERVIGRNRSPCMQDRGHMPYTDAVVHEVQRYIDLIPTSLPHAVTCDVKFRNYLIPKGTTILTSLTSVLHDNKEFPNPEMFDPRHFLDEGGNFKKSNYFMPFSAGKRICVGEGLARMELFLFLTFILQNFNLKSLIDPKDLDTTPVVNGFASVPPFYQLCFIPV
Glucose-6-phosphate 1-dehydrogenase, sequence (P11413 whole entry, the tested form may be a part): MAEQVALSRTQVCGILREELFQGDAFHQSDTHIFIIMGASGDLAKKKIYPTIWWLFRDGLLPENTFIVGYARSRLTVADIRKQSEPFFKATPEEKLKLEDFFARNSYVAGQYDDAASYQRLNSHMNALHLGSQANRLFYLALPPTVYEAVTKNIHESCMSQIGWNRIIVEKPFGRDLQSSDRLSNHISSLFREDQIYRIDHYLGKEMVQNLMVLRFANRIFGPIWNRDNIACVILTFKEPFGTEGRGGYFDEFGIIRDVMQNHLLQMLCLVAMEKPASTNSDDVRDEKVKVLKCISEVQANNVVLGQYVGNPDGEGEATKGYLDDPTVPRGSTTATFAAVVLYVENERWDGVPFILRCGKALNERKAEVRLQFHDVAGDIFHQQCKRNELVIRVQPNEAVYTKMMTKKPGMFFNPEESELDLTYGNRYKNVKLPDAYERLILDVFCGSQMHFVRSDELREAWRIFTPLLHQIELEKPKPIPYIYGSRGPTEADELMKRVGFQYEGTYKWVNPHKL
FAD-linked sulfhydryl oxidase ALR, sequence (P55789 whole entry): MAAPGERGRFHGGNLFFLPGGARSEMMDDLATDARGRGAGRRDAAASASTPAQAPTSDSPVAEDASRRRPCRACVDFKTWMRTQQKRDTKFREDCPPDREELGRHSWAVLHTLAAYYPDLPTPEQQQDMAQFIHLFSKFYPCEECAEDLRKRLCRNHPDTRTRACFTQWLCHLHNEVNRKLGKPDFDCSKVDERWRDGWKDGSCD

COC(=O)c1sccc1NC(=O)c1ccc(C#N)cc1
IC50 [1]: > 59.6 µM (inactive) | IC50 [2]: > 59.6 µM (inactive)

Cc1cc(C)c(NC(S)=NCC2CCN(C(C)c3ccccc3)C2)c(C)c1 (stereo not drawn)
IC50 [3]: 0.343 µM (active) | IC50 [4]: 0.934 µM (active) | IC50 [5]: 48.4 µM (inactive) | IC50 [6]: 6.09 µM (active) | IC50 [7]: > 80 µM (inactive)

O=C(COC(=O)c1ccc2c(c1)C(=O)N(c1cccc3ncccc13)C2=O)c1ccc(Cl)cc1
IC50 [8]: 1.97 µM (active)

CC1=NN(c2cccc(Cl)c2)C(=O)C1
IC50 [9]: 8.2 µM (active) | IC50 [10]: 13.4 µM (active) | AC50 [11]: 75.7 µM (active) | EC50 [12]: 54.5 µM (active)

Cc1ccc(Cn2ccc(NC(=O)c3cc4nc(-c5ccco5)cc(C(F)(F)F)n4n3)n2)cc1
EC50 [13]: 0.22 µM (active) | AC50 [14]: 2.82 µM (inconclusive) | AC50 [15]: 14.1 µM (inconclusive) | EC50 [16]: 0.00643 µM (active)

NC(Cc1ccc(C(F)(F)F)cc1)c1csc(Nc2nncc3ccccc23)n1 (stereo not drawn)
AC50 [17]: 19.4 µM (active) | AC50 [18]: 8.02 µM (active) | AC50 [19]: 2.52 µM (active)

C[C@@H]1CN([C@H](C)CO)C(=O)c2cccc(NC(=O)Nc3ccc(C(F)(F)F)cc3)c2O[C@H]1CN(C)Cc1ccc(Cl)c(Cl)c1
AC50 [20]: 15.7 µM (active) | AC50 [21]: 1.28 µM (active)

C[C@@H]1CN([C@H](C)CO)C(=O)c2cc(NC(=O)Nc3ccc(F)cc3)ccc2O[C@H]1CN(C)S(=O)(=O)c1ccc(Cl)cc1
AC50 [22]: > 70 µM (inactive) | AC50 [23]: 0.113 µM (active)

CCC(=O)N1CCCC1(C)C(=O)Nc1ccc(C)c(C)c1 (stereo not drawn)
AC50 [24]: 93.7 µM (active)

COc1ccc(OC)c(-c2nnc3n2N=C(c2ccc(OC)c(OC)c2)CS3)c1
AC50 [25]: 23.2 µM (active) | IC50 [26]: > 80 µM (inactive) | AC50 [27]: 4.83 µM (active)

O=[N+]([O-])c1ccccc1/C=C/C=N/n1c(S)nnc1-c1ccccc1F
IC50 [28]: > 59.6 µM (inactive) | AC50 [29]: 1.89 µM (active) | IC50 [30]: > 59.6 µM (inactive) | IC50 [31]: > 59.6 µM (inactive) | IC50 [32]: > 59.6 µM (inactive) | IC50 [33]: > 6.63 µM (active)
